From patent publication US10676433B2, “Indole derivatives and their use in neurodegenerative diseases” (Merck Patent GmbH, priority 2014, dated 2020)

Target: human P2X7 receptor (Homo sapiens (Human), UniProt Q99572)
Assay: Pore permeation assay (YO PRO dye uptake)
Type: cell-based
Details: HEK293 transfected with human P2X7 receptor, BzATP 10 uM, read-out: hP2X7 IC50
Protocol: Agonist-induced pore formation was determined by measuring cellular uptake of YO PRO fluorescence dye in HEK293 transfected with human P2X7 receptor. A HEK293 cell over expressing human P2X7 was harvested using HQTase reagent to detach the cells from T75 cm flask. The harvested cells are centrifuged @ 1200 rpm for 5 min at room temperature. The viability of cells was determined by Trypan blue dye and the cells are plated @ 10,000 cell/well in 50 ul volume in a 384W BD Poly lysine coated plate and incubated overnight at 37 C. […] The plate was centrifuged at 1000 rpm for 5 seconds and incubated at room temperature for 30 minutes. The uptake of YO PRO dye into the cells was measured using Envision Fluorescence plate reader instrument (Perkin Elmer).

Sequence of human P2X7 receptor (Q99572 whole entry): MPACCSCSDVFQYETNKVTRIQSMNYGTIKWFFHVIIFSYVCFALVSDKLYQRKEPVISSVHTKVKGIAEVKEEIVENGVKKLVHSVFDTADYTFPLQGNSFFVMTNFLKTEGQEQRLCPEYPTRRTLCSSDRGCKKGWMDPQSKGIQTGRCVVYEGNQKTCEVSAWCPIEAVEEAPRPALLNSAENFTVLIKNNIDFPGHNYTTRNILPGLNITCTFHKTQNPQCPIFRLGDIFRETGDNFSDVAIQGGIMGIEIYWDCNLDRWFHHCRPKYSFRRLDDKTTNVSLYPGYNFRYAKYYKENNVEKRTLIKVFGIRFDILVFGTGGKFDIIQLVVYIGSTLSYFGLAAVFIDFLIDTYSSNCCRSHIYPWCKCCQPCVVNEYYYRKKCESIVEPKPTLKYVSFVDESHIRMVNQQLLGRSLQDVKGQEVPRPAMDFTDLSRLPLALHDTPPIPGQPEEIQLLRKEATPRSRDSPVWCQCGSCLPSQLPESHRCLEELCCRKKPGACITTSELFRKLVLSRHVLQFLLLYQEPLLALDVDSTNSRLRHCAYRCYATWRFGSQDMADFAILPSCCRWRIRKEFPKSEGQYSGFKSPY

Row | Compound | IC50 [nM]
1 | 4-Chloro-1-oxetan-3-yl-1H-indole-3-carboxylic acid (2,2-difluoro-ethyl)-amide [Compound 76] | > 1000
2 | CC(O)(CNC(=O)c1cn(C2CCOC2)c2cccc(Cl)c12)C1CCCC1 (centres unmarked) [Compound 102, 4-Chloro-1-(tetrahydro-furan-3-yl)-1H-indole-3-carboxylic acid (2-cyclopentyl-2-hydroxy-propyl)-amide] | > 1000
